Data published in paper PMC9096233, “Identification of an Au(I) N-Heterocyclic Carbene Compound as a Bactericidal Agent Against Pseudomonas aeruginosa” (Frontiers in Chemistry, 2022).
Where two headings read alike, the source gives them in different places.

Legend:
P. aeruginosa [1] = test: Time-course of bacterial membrane permeation, propidium iodide microplate; assay type: cell-based, Pseudomonas aeruginosa; conditions: 50 μM; 37°C
Method: Overnight P. aeruginosa culture was diluted 1:100 with fresh M9 medium and grown to early-mid exponential phase (OD600 = 0.4–0.6). The culture was then diluted 1:10 into PBS and treated with the 50 μM concentration of Au1 or auranofin for 30 min. Then the bacteria were incubated with propidium iodide (PI), a dye that is excluded from cells with impermeable membrane. The CytoFLEX flow cytometry (Beckman Coulter) was used to measure the bacterial fluorescent intensities and the data was analyzed using CytExpert 2.4 software. For the time-course detection of the bacterial permeability induced by Au1 or auranofin, P. aeruginosa in early-mid exponential phase (OD600 = 0.2) was incubated with PI dye on a 96-well plate. Au1 or auranofin was added to a final concentration of 50 μM. The fluorescence signal (561 nm excitation, 590 nm emission) and OD600 value were recorded on Cytation5 microplate reader. Each experiment was performed in triplicates.

lung carcinoma A549 cell = test: MTT cytotoxicity assay; assay type: cell-based, Human; conditions: 48 h
Method: The cytotoxicity of gold compounds to mammalian cells was measured using the 3-(4, 5-dimethylthiazol-2-yl)-2, 5-diphenyltetrazolium bromide (MTT) assay. Human hepatocyte L-O2 cell, and lung carcinoma A549 cell were cultured in Corning 96 well microplates (10^4 cells per well) at 37°C for 18 h. Then the cells were incubated with gradient concentrations of gold compounds at 37°C for another 48 h. After the treatment, cell culture media were removed and the plates were wash with PBS for three times. And 90 μL fresh media and 10 μL 5 mg/ml MTT solution were added to each well and further incubated at 37°C for 4 h. Subsequently, the media were removed from the wells and 150 μL DMSO was added into each well to dissolve the formazan crystals. The absorbance at 490 nm of each well was measured with a micro-plate reader. The experiments were carried out in triplicates.

[2] = system: Pseudomonas aeruginosa strain PAO1; test: MIC by standard broth dilution; assay type: cell-based; conditions: read-out: MIC
Method: (§1) Pseudomonas aeruginosa strain PAO1 (P. aeruginosa) was grown in M9 minimal medium (1.0 g/L NH4Cl, 0.5 g/L NaCl, 6.0 g/L Na2HPO4, 3.0 g/L KH2PO4) supplemented with 1.0 mM MgSO4, 1.0 mM ZnSO4, 0.2 mM CaCl2, 0.4% (w/v) glucose and 0.2% (w/v) casein hydrolysate. Gram-negative Escherichia coli strain K-12 (E. coli) and Burkholderia cepacia J2315 (B. cepacia) were cultured in Luria-Bertani (LB) medium (5 g/L yeast extract, 10 g/L tryptone, 10 g/L sodium chloride). The Gram-positive Staphylococcus aureus strain Newman (S. aureus) was grown in Tryptic Soy Broth (TSB) medium (17 g/L Tryptone, 3 g/L Phytone, 5 g/L sodium chloride, 2.5 g/L dipotassium phosphate and glucose 2.5 g/L).
(§2) The minimal inhibitory concentration (MIC) values of the gallium compounds were determined using a standard broth dilution method as described previously ([Wiegand et al., 2008]). In brief, the compounds were two-fold serially diluted to concentrations from 400 to 1.56 μM. Approximately 50 μL of the compound solution was added to a 96-well microtiter plate and mixed with 50 μL of bacteria culture in log phase (10^6 CFU/ml). The bacterial culture was further incubated at 37°C for 22–24 h. The OD600 values for each well was recorded on a microplate reader. The MICs value was defined as the lowest compound concentration that inhibited 95% of the bacterial growth.

[3] = system: Staphylococcus aureus Newman; test: MIC by standard broth dilution; assay type: cell-based; conditions: Table S1
Method: as §1, §2

[4] = system: Burkholderia cepacia J2315; test: MIC by standard broth dilution; assay type: cell-based; conditions: Table S1
Method: as §1, §2

Escherichia coli MG16552 = test: MIC by standard broth dilution; assay type: cell-based; conditions: Table S1
Method: as §1, §2

P. aeruginosa [5] = test: Bacterial growth curves; assay type: cell-based, Pseudomonas aeruginosa; conditions: growth curves
Method: as §1

## NHC^Me-Au-Cl [Au1]
P. aeruginosa [1]
  time to initiation of bacterial membrane rupture: 1.5 h
Lung carcinoma A549 cell
  IC50: 32.8 ± 1.6 µM
[2]; P. aeruginosa PAO1, lowest concentration inhibiting 95% of growth, 22–24 h, Table 1
  MIC: 25 µM
[2]; Pseudomonas aeruginosa PAO1, Table S1
  MIC: 25 µM
[3]
  MIC: <1.56 µM
[4]
  MIC: 25 µM
Escherichia coli MG16552
  MIC: <1.56 µM
P. aeruginosa [5]
  concentration at which P. aeruginosa growth was completely inhibited: 20 µM
